One experiment has as its target KRas G12R (Homo sapiens, UniProt P01116, G12R). The experiment can be described thus: biochemical. The note with it: Binding to KRas (IC50 nM) G12R, TR-FRET displacement, KRas G12R. (TR-FRET usually uses a lanthanide donor and a delayed reading to cut background.)
A further experiment has as its target KRas G12D (Homo sapiens, UniProt P01116, G12D). The experiment is described as follows: biochemical. The settings on record: Binding to KRas (IC50 nM) G12D, TR-FRET displacement, KRas G12D.
In a further experiment the target is KRas WT (Homo sapiens, UniProt P01116). The experiment is described as follows: KRas binding assay (TR-FRET displacement), KRas WT. The settings on record: single point, 10 nM compound.
The next experiment concerns H460 cells. The experiment is described as follows: Inhibition of KRas-mediated phosphorylation of ERK (Cisbio HTRF pERK), H460 cells. In kind it is cell-based. The settings on record: Homo sapiens, NCI-H460, 3 h, 3 hr compound incubation, Cisbio pERK HTRF.
In another experiment the test system is MKN1 cells. The experiment can be described thus: Inhibition of KRas-mediated phosphorylation of ERK (Cisbio HTRF pERK), MKN1 cells. In kind it is cell-based. The note with it: Homo sapiens, MKN-1, 3 hour compound incubation, Cisbio pERK HTRF. In a few lines:
(§1)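 Cells were seeded on day 1 at 6,000 per well in RPMI containing 10% FBS before compound treatment and phospho-ERK detection.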

Another experiment addresses KRas G12A (Homo sapiens, UniProt P01116, G12A). It counts as binding. The settings on record: single point, 10 nM compound, read-out: Binding to KRas (% inhibition at 10 nM) G12A.
Another experiment concerns the target KRas G12C (Homo sapiens, UniProt P01116, G12C). In kind it is binding. The note with it: single point, 10 nM compound, read-out: Binding to KRas (% inhibition at 10 nM) G12C.
Another experiment deals with PSN1 cells. The experiment can be described thus: Inhibition of KRas-mediated phosphorylation of ERK (Cisbio HTRF pERK), PSN1 cells. In kind it is cell-based. The note with it: Homo sapiens, PSN1, 3 h, 3 hour compound incubation, Cisbio pERK HTRF. In a few lines: as §1
A further experiment deals with H727 cells. The experiment can be described thus: Inhibition of KRas-mediated phosphorylation of ERK (Cisbio HTRF pERK), H727 cells. It counts as cell-based. The settings on record: Homo sapiens; for IC50: NCI-H727, 3 h, 3 hr compound incubation, Cisbio pERK HTRF.
The target of a further experiment is KRas G12S (Homo sapiens, UniProt P01116, G12S). In kind it is binding. The note with it: single point, 10 nM compound, read-out: Binding to KRas (% inhibition at 10 nM) G12S.
In another experiment the target is KRas G12V (Homo sapiens, UniProt P01116, G12V). The experiment can be described thus: biochemical. The note with it: Binding to KRas (IC50 nM) G12V, TR-FRET displacement, KRas G12V.
For the next experiment, the system named is A549 cells. The experiment can be described thus: Inhibition of KRas-mediated phosphorylation of ERK (Cisbio HTRF pERK), A549 cells. The settings on record: Homo sapiens; for IC50: A549, 3 h, 3 hr compound incubation, Cisbio pERK HTRF; for inhibition at 0.1 µM: single point at 100 nM, 3 hrs compound incubation. It counts as cell-based.
A further experiment deals with H358 cells. The experiment is described as follows: Inhibition of KRas-mediated phosphorylation of ERK (Cisbio HTRF pERK), H358 cells. In kind it is cell-based. The note with it: Homo sapiens; for IC50: NCI-H358, 3 h, 3 hr compound incubation, Cisbio pERK HTRF; for inhibition at 0.1 µM: NCI-H358, single point at 100 nM, 3 hrs compound incubation.
The target in another experiment is KRas G13D (Homo sapiens, UniProt P01116, G13D). It counts as binding. The note with it: single point, 10 nM compound, read-out: Binding to KRas (% inhibition at 10 nM) G13D.
For a further experiment, the system named is HCT116 cells. The experiment can be described thus: Inhibition of KRas-mediated phosphorylation of ERK (Cisbio HTRF pERK), HCT116 cells. It counts as cell-based. The settings on record: Homo sapiens, HCT-116, 3 h, 3 hr compound incubation, Cisbio pERK HTRF.
The target of a further experiment is KRas Q61H (Homo sapiens, UniProt P01116, Q61H). The experiment can be described thus: KRas binding assay (TR-FRET displacement), KRas Q61H. The settings on record: single point, 10 nM compound.
For another experiment, the system named is ASPC1 cells. The experiment is described as follows: Inhibition of KRas-mediated phosphorylation of ERK (Cisbio HTRF pERK), ASPC1 cells. The note with it: Homo sapiens, AsPC-1 cells; for IC50: ASPC1, 3 h, 3 hr compound incubation, Cisbio pERK HTRF. In kind it is cell-based.

Chain of KRas G12R (P01116 1-169 isoform P01116-2 G12R): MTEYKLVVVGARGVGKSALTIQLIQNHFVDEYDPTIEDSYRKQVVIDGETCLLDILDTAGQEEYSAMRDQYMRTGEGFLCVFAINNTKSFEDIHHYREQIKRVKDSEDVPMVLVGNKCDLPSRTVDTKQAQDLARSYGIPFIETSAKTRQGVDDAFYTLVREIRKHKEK
Chain of KRas G12V (P01116 1-169 isoform P01116-2 G12V): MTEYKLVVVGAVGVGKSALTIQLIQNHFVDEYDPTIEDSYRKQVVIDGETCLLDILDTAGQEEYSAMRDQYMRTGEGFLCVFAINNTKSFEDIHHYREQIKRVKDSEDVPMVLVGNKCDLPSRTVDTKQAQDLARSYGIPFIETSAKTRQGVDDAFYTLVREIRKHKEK
Chain of KRas WT (P01116 1-169 isoform P01116-2): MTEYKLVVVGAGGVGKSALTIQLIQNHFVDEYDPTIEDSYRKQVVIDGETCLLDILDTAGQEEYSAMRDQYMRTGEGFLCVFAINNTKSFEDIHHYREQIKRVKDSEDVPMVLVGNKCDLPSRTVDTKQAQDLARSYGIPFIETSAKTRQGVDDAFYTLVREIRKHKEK
Chain of KRas Q61H (P01116 1-169 isoform P01116-2 Q61H): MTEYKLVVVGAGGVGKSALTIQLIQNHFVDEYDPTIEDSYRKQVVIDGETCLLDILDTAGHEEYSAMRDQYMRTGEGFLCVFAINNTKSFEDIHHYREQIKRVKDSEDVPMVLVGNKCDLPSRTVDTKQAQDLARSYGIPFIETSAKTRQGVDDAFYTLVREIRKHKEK
Chain of KRas G12D (P01116 1-169 isoform P01116-2 G12D): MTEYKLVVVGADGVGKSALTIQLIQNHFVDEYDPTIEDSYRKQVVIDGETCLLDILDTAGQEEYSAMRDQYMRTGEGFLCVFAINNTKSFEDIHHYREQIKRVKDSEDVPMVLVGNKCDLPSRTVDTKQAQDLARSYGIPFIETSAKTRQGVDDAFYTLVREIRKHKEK
Chain of KRas G12S (P01116 1-169 isoform P01116-2 G12S): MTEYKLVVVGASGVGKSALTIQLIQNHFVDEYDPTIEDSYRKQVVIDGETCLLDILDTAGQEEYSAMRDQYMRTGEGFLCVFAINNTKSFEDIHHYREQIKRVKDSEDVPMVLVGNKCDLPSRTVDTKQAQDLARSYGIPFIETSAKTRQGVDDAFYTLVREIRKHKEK
Chain of KRas G12C (P01116 1-169 isoform P01116-2 G12C): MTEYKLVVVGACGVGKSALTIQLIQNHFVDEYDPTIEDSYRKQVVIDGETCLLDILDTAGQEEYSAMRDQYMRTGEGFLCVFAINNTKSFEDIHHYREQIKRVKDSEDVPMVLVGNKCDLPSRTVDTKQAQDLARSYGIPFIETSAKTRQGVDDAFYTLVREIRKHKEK
Chain of KRas G12A (P01116 1-169 isoform P01116-2 G12A): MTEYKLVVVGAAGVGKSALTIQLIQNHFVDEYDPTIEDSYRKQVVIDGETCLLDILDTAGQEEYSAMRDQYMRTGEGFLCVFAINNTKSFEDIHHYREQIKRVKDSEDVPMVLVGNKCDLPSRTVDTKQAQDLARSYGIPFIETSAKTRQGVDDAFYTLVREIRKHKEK
Chain of KRas G13D (P01116 1-169 isoform P01116-2 G13D): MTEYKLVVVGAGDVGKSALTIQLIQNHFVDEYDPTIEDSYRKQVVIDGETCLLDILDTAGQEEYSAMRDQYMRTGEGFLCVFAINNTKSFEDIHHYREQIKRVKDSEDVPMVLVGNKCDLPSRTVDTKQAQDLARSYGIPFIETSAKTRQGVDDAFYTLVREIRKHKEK

Broadly, the IC50 is the concentration at which inhibition is half-maximal. Higher therefore signals weaker potency. Usually inhibition stands for the relative decrease from the control value, in per cent. As for `CCc1c(F)ccc2cc(O)cc(N3CCc4c(nc(OC[C@@]56CCCN5C[C@H](F)C6)nc4N4CCCn5nc(C(=O)N(C)C)c(OC)c5C4)C3)c12` [Example 370, 5-(7-(8-ethyl-7-fluoro-3-hydroxynaphthalen-1-yl)-2-(((2R,7aS)-2-fluorohexahydro-1H-pyrrolizin-7a-yl)methoxy)-5,6,7,8-tetrahydropyrido[3,4-d]pyrimidin-4-yl)-3-methoxy-N,N-dimethyl-5,6,7,8-tetrahydro-4H-pyrazolo[1,5-a][1,4]diazepine-2-carboxamide], the 50% inhibitory concentration (IC50) on KRas G12R is less than 2 nM; at KRas G12D, less than 2 nM; with H460 cells, 43 nM; with MKN1 cells, 6.9 nM; in the experiment with PSN1 cells, more than 10000 nM; with H727 cells, 20 nM. For the same molecule, the IC50 on KRas G12V is less than 2 nM; with A549 cells, 36 nM; in the experiment on H358 cells, 6 nM; in the experiment on HCT116 cells it was 132 nM; in the experiment with ASPC1 cells, 9 nM. Further, the inhibition at 0.01 µM on KRas WT stood at 97%; at KRas G12A, 97%; at KRas G12C, 99%; on KRas G12S, 99%; on KRas G13D, 98%; on KRas Q61H, 98%. Also, the results for the inhibition at 0.1 µM in the experiment with A549 cells and with H358 cells were 65% and 97%, respectively.
For `CCc1c(F)ccc2cc(O)cc(N3CCc4c(nc(OC[C@@]56CCCN5C[C@H](F)C6)nc4N4CCCn5nc(C(=O)NC(C)C)c(C)c5C4)C3)c12` [Example 371, 5-(7-(8-ethyl-7-fluoro-3-hydroxynaphthalen-1-yl)-2-(((2R,7aS)-2-fluorohexahydro-1H-pyrrolizin-7a-yl)methoxy)-5,6,7,8-tetrahydropyrido[3,4-d]pyrimidin-4-yl)-N-isopropyl-3-methyl-5,6,7,8-tetrahydro-4H-pyrazolo[1,5-a][1,4]diazepine-2-carboxamide], the half-maximal inhibitory concentration (IC50) on KRas G12R is less than 2 nM; on KRas G12D it was 2 nM; in the experiment on H460 cells it was 35 nM; in the experiment on MKN1 cells it was 9.9 nM; in the experiment with PSN1 cells, 5080 nM; in the experiment with H727 cells, 5 nM. The IC50 is less than 2 nM on KRas G12V; 9 nM with A549 cells; 3 nM with H358 cells; 187 nM with HCT116 cells; 3 nM in the experiment on ASPC1 cells. Moreover, the inhibition at 0.01 µM at KRas WT came to 86%; at KRas G12A it was 91%; at KRas G12C it was 98%; on KRas G12S, 96%; on KRas G13D it was 87%; at KRas Q61H it was 89%. The inhibition at 0.1 µM in the experiment with A549 cells is 79%; in the experiment with H358 cells, 101%.
Consider `CCc1c(C(=O)N(C)C)nn2c1CN(c1nc(OC[C@@]34CCCN3C[C@H](F)C4)nc3c1CCN(c1cc(O)cc4ccc(F)c(CC)c14)C3)CCC2` [Example 372, 3-ethyl-5-(7-(8-ethyl-7-fluoro-3-hydroxynaphthalen-1-yl)-2-(((2R,7aS)-2-fluorohexahydro-1H-pyrrolizin-7a-yl)methoxy)-5,6,7,8-tetrahydropyrido[3,4-d]pyrimidin-4-yl)-N,N-dimethyl-5,6,7,8-tetrahydro-4H-pyrazolo[1,5-a][1,4]diazepine-2-carboxamide], for which the IC50 on KRas G12R is less than 2 nM; at KRas G12D, less than 2 nM; with H460 cells it was 11 nM; in the experiment with MKN1 cells, 3.1 nM; in the experiment with PSN1 cells it was 2010 nM; in the experiment on H727 cells, 5 nM. The IC50 is less than 2 nM at KRas G12V; 10 nM in the experiment on A549 cells; 2 nM in the experiment with H358 cells; 54 nM in the experiment on HCT116 cells; 2 nM in the experiment with ASPC1 cells. In addition, the inhibition at 0.01 µM worked out at 98% on KRas WT; 99% at KRas G12A; 99% at KRas G12C; 99% on KRas G12S; 98% on KRas G13D; 99% on KRas Q61H. Besides, the inhibition at 0.1 µM in the experiment with H727 cells (NCI-H727, single point at 100 nM, 3 hrs compound incubation) was 76%; with A549 cells, 72%; in the experiment with H358 cells, 104%; in the experiment with ASPC1 cells (ASPC1, single point at 100 nM, 3 hrs compound incubation) it was 95%.
As to `CCc1c(F)ccc2cc(O)cc(N3CCc4c(nc(OC[C@@]56CCCN5C[C@H](F)C6)nc4N4CCCn5nc(C(=O)N(C)CCOCCOC)cc5C4)C3)c12` [Example 373, 5-(7-(8-ethyl-7-fluoro-3-hydroxynaphthalen-1-yl)-2-(((2R,7aS)-2-fluorohexahydro-1H-pyrrolizin-7a-yl)methoxy)-5,6,7,8-tetrahydropyrido[3,4-d]pyrimidin-4-yl)-N-(2-(2-methoxyethoxy)ethyl)-N-methyl-5,6,7,8-tetrahydro-4H-pyrazolo[1,5-a][1,4]diazepine-2-carboxamide], the concentration for half-maximal inhibition (IC50) on KRas G12R was less than 2 nM; at KRas G12D, less than 2 nM; in the experiment on H460 cells it was 14 nM; in the experiment with MKN1 cells, 6.6 nM; in the experiment on PSN1 cells, 4150 nM; with H727 cells it was 4 nM. Further, the IC50 at KRas G12V is less than 2 nM; in the experiment with A549 cells it was 11 nM; in the experiment on H358 cells, 2 nM; in the experiment with HCT116 cells, 48 nM; in the experiment with ASPC1 cells it was 2 nM. Further, the inhibition at 0.01 µM worked out at 96% at KRas WT; 96% on KRas G12A; 99% at KRas G12C; 99% at KRas G12S; 96% on KRas G13D; 97% on KRas Q61H. In addition, the inhibition at 0.1 µM in the experiment with A549 cells came to 72%; in the experiment with H358 cells, 93%.
Turning to `CCc1c(F)ccc2cc(O)cc(N3CCc4c(nc(OC[C@@]56CCCN5C[C@H](F)C6)nc4N4CCCn5nc(C(=O)NCCOCCOC)cc5C4)C3)c12` [Example 374, 5-(7-(8-ethyl-7-fluoro-3-hydroxynaphthalen-1-yl)-2-(((2R,7aS)-2-fluorohexahydro-1H-pyrrolizin-7a-yl)methoxy)-5,6,7,8-tetrahydropyrido[3,4-d]pyrimidin-4-yl)-N-(2-(2-methoxyethoxy)ethyl)-5,6,7,8-tetrahydro-4H-pyrazolo[1,5-a][1,4]diazepine-2-carboxamide], the half-maximal inhibitory concentration (IC50) at KRas G12R was less than 2 nM; at KRas G12D it was less than 2 nM; in the experiment on H460 cells, 35 nM; in the experiment on MKN1 cells, 13.5 nM; in the experiment with PSN1 cells, 4820 nM; in the experiment with H727 cells, 6 nM. Also, the half-inhibitory concentration (IC50) on KRas G12V was less than 2 nM; in the experiment on A549 cells it was 25 nM; in the experiment with H358 cells, 5 nM; in the experiment with HCT116 cells, 105 nM; in the experiment on ASPC1 cells, 4 nM. Further, the inhibition at 0.01 µM on KRas WT amounted to 95%; at KRas G12A, 96%; on KRas G12C, 99%; on KRas G12S, 99%; on KRas G13D, 94%; at KRas Q61H, 96%. In addition, the inhibition at 0.1 µM worked out at 57% in the experiment with A549 cells and 99% with H358 cells.

The values are drawn from patent publication US20250368649A1, “TETRAHYDROPYRIDOPYRIMIDINE PAN-KRAS INHIBITORS” (Mirati Therapeutics, Inc., priority 2022, published 2025).
